From patent US20120196933A1, “MEXILETINE PRODRUGS” (priority 2010, published 2012)
Where “and” joins values, the source holds several entries; their conditions need not be identical. Equal values may be shown once. Read-outs that look alike come from different tables or passages of the source. Marks after values point to notes of the source that are not given here.

Columns and labels:
[1] = In vitro stability of mexiletine prodrugs under conditions prevailing in the gut; type: physicochemical; settings: 0.1M phosphate buffer pH 7.4, 2 h
[2] = tested on: 9-AC induced myotonia in the rat; test: Anti-myotonic effects in 9-anthracene carboxylic acid (9-AC) treated rats (righting time); type: in vivo; settings: for Mean ± SEM righting response time: 9-AC 30 mg/kg ip
Experimental: The use of ip injection of 9-anthracene carboxylic acid is known to induce a myotonic state in rats which can then be used to assess the activity of potential anti-myotonic compounds (Villegas-NavarroA et al (1992) Exp. Toxicol. Pathol. 44 34-39).
Groups of four rats were predosed with 30 mg/kg 9-AC (time 0) and ten minutes later their righting time was assessed repeatedly seven times in rapid succession. They were then dosed po with mexiletine or mexiletine glutamic acid amide at 1, 5, 10, 20 or 40 mg/kg and the righting time reassessed at ˜30, 60, 120 and 180 minutes after 9-AC injection. At each dose level, a group of four control animals, given vehicle alone, was used

[3] = rat
Experimental: Test substances (i.e., mexiletine & mexiletine glutamic acid amide) were administered by oral gavage to groups of five male Sprague Dawley rats.
Blood samples were taken at various times after administration and submitted to analysis for the prodrug and parent drug using a validated LC-MS-MS assay. Pharmacokinetic parameters derived from the plasma analytical were determined using Win Nonlin.

[4] = Systemic availability of mexiletine in the dog from mexiletine prodrugs (oral gavage); type: in vivo
Experimental: Test substances (i.e., mexiletine, and various mexiletine amino acid prodrugs) were administered by oral gavage to groups of two or some cases five dogs. The characteristics of the test animals are set out in Table 6.
Blood samples were taken at various times after administration and submitted to analysis for parent drug using a validated LC-MS-MS assay. Pharmacokinetic parameters derived from the plasma bioanalytical data were determined using Win Nonlin.

[5] = Systemic availability of mexiletine in the cynomolgus monkey from mexiletine prodrugs (oral gavage); type: in vivo; settings: 1 mg/kg mexiletine free base
Experimental: Test substances (i.e., mexiletine, and various mexiletine amino acid prodrugs) were administered by oral gavage to groups of two and, in one case, five male cynomolgus monkeys. Blood samples were taken at various times after administration and submitted to analysis for the parent drug using a validated LC-MS-MS assay. Pharmacokinetic parameters derived from the plasma bioanalytical data were determined using Win Nonlin.

[6] = In vitro stability of mexiletine prodrugs under conditions prevailing in the gut; type: physicochemical; settings: HPLC
Experimental: To investigate if the prodrugs of the present invention are stable in conditions mimicking the gut, various mexiletine amino acid prodrugs were incubated at 37° C. in simulated gastric and simulated intestinal juice (USP defined composition) for 2 hours. The remaining concentrations of the prodrug were then assayed by HPLC.

ADR mouse = test: Anti-myotonic effects in the ADR mouse (righting response); type: in vivo
Experimental: The effects of oral administration of either mexiletine glutamic acid amide at 5, 10 or 20 mg/kg or mexiletine 5 mg/kg on the righting response of a group of three adr/adr mice were examined on three separate days. Each assessment involved placing the individual mice on their back no fewer than seven successive occasions in rapid succession and determining the time to successful righting at various time pre and post dosing (−10, +15, +30, +60, +120 & +180 mins).

[7] = oral 5 mg mexiletine free base equivalents/kg, individual animals, Hydrochloride
[8] = oral 5 mg mexiletine free base equivalents/kg, plasma prodrug, individual animals, Hydrochloride
[9] = oral 5 mg mexiletine free base equivalents/kg, plasma prodrug, mean
[10] = 1 mg/kg mexiletine free base, plasma mexiletine

Cc1cccc(C)c1OCC(C)NC(=O)C(N)CCC(=O)O.Cl (mixture of isomers) [Mexiletine glutamic acid amide, Mexiletine-(S)-Glutamic Acid Amide Hydrochloride]
pH 7.4, 37° C. 0.1M phosphate buffer: % remaining after 2 h/37° C. [1]: 100%
Coefficient of variation of the response ([2]; 10 mg/kg (same molar dose level), time of maximal effect of 9-AC (+30 mins)): 43.3%
Mean ± SEM righting response time ([2]; drug 1 mg/kg po, 9-AC +10 mins (predrug)): 1.98 ± 0.115 s
Mean ± SEM righting response time ([2]; drug 1 mg/kg po, 9-AC +30 mins): 3.52 ± 0.398 s
Mean ± SEM righting response time ([2]; drug 1 mg/kg po, 9-AC +60 mins): 1.86 ± 0.195 s
Mean ± SEM righting response time ([2]; drug 1 mg/kg po, 9-AC +120 mins): 1.07 ± 0.0369 s
Mean ± SEM righting response time ([2]; drug 1 mg/kg po, 9-AC +180 mins): 0.714 ± 0.0427 s
Mean ± SEM righting response time ([2]; drug 5 mg/kg po, 9-AC +10 mins (predrug)): 2.24 ± 0.208 s
Mean ± SEM righting response time ([2]; drug 5 mg/kg po, 9-AC +60 mins): 2.22 ± 0.0828 s
Mean ± SEM righting response time ([2]; drug 5 mg/kg po, 9-AC +120 mins): 1.32 ± 0.194 s
Mean ± SEM righting response time ([2]; drug 5 mg/kg po, 9-AC +180 mins): 1.11 ± 0.220 s
Mean ± SEM righting response time ([2]; drug 10 mg/kg po, 9-AC +10 mins (predrug)): 3.07 ± 0.754 s
Mean ± SEM righting response time ([2]; drug 10 mg/kg po, 9-AC +60 mins): 2.33 ± 0.472 s
Mean ± SEM righting response time ([2]; drug 10 mg/kg po, 9-AC +120 mins): 1.26 ± 0.105 s
Mean ± SEM righting response time ([2]; drug 10 mg/kg po, 9-AC +180 mins): 1.18 ± 0.156 s
Mean ± SEM righting response time ([2]; drug 20 mg/kg po, 9-AC +10 mins (predrug)): 1.90 ± 0.274 s
Mean ± SEM righting response time ([2]; drug 20 mg/kg po, 9-AC +60 mins): 1.51 ± 0.153 s
Mean ± SEM righting response time ([2]; drug 20 mg/kg po, 9-AC +120 mins): 1.18 ± 0.0973 s
Mean ± SEM righting response time ([2]; drug 20 mg/kg po, 9-AC +180 mins): 1.03 ± 0.0709 s
Mean ± SEM righting response time ([2]; drug 40 mg/kg po, 9-AC +10 mins (predrug)): 2.10 ± 0.077 s
Mean ± SEM righting response time ([2]; drug 40 mg/kg po, 9-AC +60 mins): 0.95 ± 0.166 s
Mean ± SEM righting response time ([2]; drug 40 mg/kg po, 9-AC +120 mins): 0.669 ± 0.0558 s
Mean ± SEM righting response time ([2]; drug 40 mg/kg po, 9-AC +180 mins): 0.570 ± 0.0576 s
Overall bioavailability of mexiletine from the prodrug vs mexiletine ([3]; oral): ~2.75 fold
Frel ([3]; oral 5 mg mexiletine free base equivalents/kg, individual animals, vs mexiletine, Hydrochloride): 163^c % and 152^c % and 232% and 303% and 283%
AUC of mexiletine [3, 7]: 29.2* ng · h/mL and 33.3 ng · h/mL and 43.4 ng · h/mL and 40.6 ng · h/mL
Cmax of mexiletine [3, 7]: 8.21 ng/mL and 8.99 ng/mL and 7.97 ng/mL and 10.4 ng/mL and 8.84 ng/mL
T>50% Cmax of mexiletine [3, 7]: 4.1 h (2×) and 2.5 h and 2.4 h and 3.9 h
Tmax of mexiletine [3, 7]: 1 h (3×) and 2 h (2×)
t 1/2 of mexiletine [3, 7]: 1.8* h and 2.6 h and 1.2 h and 2.5 h
t 1/2 of mexiletine, mean ([3]; oral 5 mg mexiletine free base equivalents/kg, ln2/mean k): 1.9^b h
Cmax of mexiletine, mean ([3]; oral 5 mg mexiletine free base equivalents/kg, mean): 8.88 ng/mL
AUC of mexiletine, mean ([3]; oral 5 mg mexiletine free base equivalents/kg, mean (values with extrapolated AUC > 25% omitted)): 39.1 ng·h/mL
Frel, mean ([3]; oral 5 mg mexiletine free base equivalents/kg, mean, vs mexiletine): 273%
Tmax of mexiletine, median ([3]; oral 5 mg mexiletine free base equivalents/kg, median value): 1^a h
T>50% Cmax of mexiletine, median ([3]; oral 5 mg mexiletine free base equivalents/kg, median value, Hydrochloride): 3.9^a h
T>50% Cmax of mexiletine, median ([3]; oral 5 mg mexiletine free base equivalents/kg, median value, listed as MGAA, Hydrochloride): ~4.0 h
AUC of mexiletine glutamic acid amide (prodrug) [3, 8]: 269 ng·h/mL and 266 ng·h/mL and 223 ng·h/mL and 320 ng·h/mL and 413 ng·h/mL
Cmax of mexiletine glutamic acid amide (prodrug) [3, 8]: 127 ng/mL and 186 ng/mL and 101 ng/mL and 180 ng/mL and 138 ng/mL
Tmax of mexiletine glutamic acid amide (prodrug) [3, 8]: 0.25 h and 0.5 h (2×) and 1.0 h (2×)
t 1/2 of mexiletine glutamic acid amide (prodrug) [3, 8]: 1.0 h and 0.9 h (2×) and 1.9 h and 1.3 h
t 1/2 of mexiletine glutamic acid amide (prodrug), mean ([3]; oral 5 mg mexiletine free base equivalents/kg, plasma prodrug, ln2/mean k): 1.0^b h
AUC of mexiletine glutamic acid amide (prodrug), mean [3, 9]: 298 ng·h/mL
Cmax of mexiletine glutamic acid amide (prodrug), mean [3, 9]: 146 ng/mL
Tmax of mexiletine glutamic acid amide (prodrug), median ([3]; oral 5 mg mexiletine free base equivalents/kg, plasma prodrug, median value): 0.5^a h
Bioavailability with respect to mexiletine [4]: near complete
AUC of mexiletine [4, 10]: 1020 ng·h/mL
Cmax of mexiletine [4, 10]: 104 ng/mL
T50% Cmax [4, 10]: 7.64 h
F(rel) ([4]; 1 mg/kg mexiletine free base, relative to mexiletine, Hydrochloride, 1 mg/kg): 94.9%
AUC of mexiletine ([5]; plasma mexiletine): 604 ng·h/mL
Cmax of mexiletine ([5]; plasma mexiletine): 90.6 ng/mL
T50% Cmax ([5]; plasma mexiletine): 4.76 h
F(rel) ([5]; relative to mexiletine, Hydrochloride, 1 mg/kg): 87.6%
Simulated gastric fluid (pH 1.1): % remaining after 2 h/37° C. ([6]; simulated gastric fluid pH 1.1, 2 h): 100%
Simulated intestinal fluid (pH 6.8): % remaining after 2 h/37° C. ([6]; simulated intestinal fluid pH 6.8, 2 h): 98.3%
Effects on righting time (ADR mouse; oral 5 mg/kg): marginal
Mean ± SEM righting response time (ADR mouse; oral 5 mg/kg, +15 mins): 5.70 ± 0.864 s
Mean ± SEM righting response time (ADR mouse; oral 5 mg/kg, +30 mins): 6.53 ± 0.928 s
Mean ± SEM righting response time (ADR mouse; oral 5 mg/kg, +60 mins): 7.13 ± 1.46 s
Mean ± SEM righting response time (ADR mouse; oral 5 mg/kg, +120 mins): 9.22 ± 1.44 s
Mean ± SEM righting response time (ADR mouse; oral 5 mg/kg, +180 mins): 8.38 ± 0.601 s
Mean ± SEM righting response time (ADR mouse; oral 5 mg/kg, −10 mins (pre dosing)): 5.10 ± 0.580 s
Mean ± SEM righting response time (ADR mouse; oral 10 mg/kg, +15 mins): 3.14 ± 0.278 s
Mean ± SEM righting response time (ADR mouse; oral 10 mg/kg, +30 mins, listed as MGAA, Hydrochloride, 10 mg/kg): 2.74+0.37 secs and 2.74 ± 0.373 secs
Mean ± SEM righting response time (ADR mouse; oral 10 mg/kg, +60 mins): 4.41 ± 1.02 s
Mean ± SEM righting response time (ADR mouse; oral 10 mg/kg, +120 mins): 5.45 ± 0.529 s
Mean ± SEM righting response time (ADR mouse; oral 10 mg/kg, +180 mins): 6.92 ± 1.05 s
Mean ± SEM righting response time (ADR mouse; oral 10 mg/kg, −10 mins (pre dosing), listed as MGAA, Hydrochloride, 10 mg/kg): 5.18 ± 0.43 s and 5.18 ± 0.427 s
Mean ± SEM righting response time (ADR mouse; oral 20 mg/kg, +15 mins): 4.23 ± 1.09 s
Mean ± SEM righting response time (ADR mouse; oral 20 mg/kg, +30 mins): 3.06 ± 0.884 s
Mean ± SEM righting response time (ADR mouse; oral 20 mg/kg, +60 mins): 4.05 ± 0.286 s
Mean ± SEM righting response time (ADR mouse; oral 20 mg/kg, +120 mins): 5.90 ± 0.568 s
Mean ± SEM righting response time (ADR mouse; oral 20 mg/kg, +180 mins): 7.90 ± 1.34 s
Mean maximum reduction in righting time (ADR mouse; oral 20 mg/kg, extended over 3 hours): ~60%
Mean ± SEM righting response time (ADR mouse; oral 20 mg/kg, −10 mins (pre dosing)): 7.13 ± 1.84 s
